Results: patent US6559125B1, “Polyamide-alkylator conjugates and related products and method” (priority 2000, dated 2003)

Assays:
[1] = test system: 3′ and 5′ 32P labeled 241 base pair restriction fragments containing the HIV-1 promoter; assay: Thermal cleavage assay (heat-induced single-strand DNA cleavage); type: biochemical
Method: Storage phosphor autodiograms of 8% denaturing polyacrylamide gels used to separate the fragments generated by heat induced DNA cleavage at alkylation sites. All reactions contained 10,000 cpm restriction fragment, 10 mM Tris.HCl (pH 7.0), 10 mM KCl, 10 mM MgCl and 5 mM CaCl and were performed at 37° C. Following 24 hour of equilibration, the DNA pellet was resuspended in sodium citrate buffer (pH=7.2) and heated to 90° C. for 15 min to thermally cleave at sites of adenine- or guanine-N3 lesions. (a) 5′-^32P-end-labeled restriction fragment (SEQ ID NO:5). (b) 3′-^32P-end-labeled restriction fragment. (a-b) Lane 1, intact DNA; lane 2, A-specific reaction; lane 3, G-specific reaction; lanes 5-13, […], respectively. (b) Lane 14, 10 μM CHL-Dp (5). Center, alkylation sites on the DNA fragment, indicate by arrows. Sites 5′-TCGTCGACGA-3′ (SEQ ID NO:20) (A), 5′-ACGTCGA-3′ (B), and 5′-ACGTCGA-3′ (E) are match sites and 5′-ACATCTT-3′ (C) and 5′-TCGTCAG-3′ (D) are double base pair mismatches (mismatches indicated by gray boxes).
Storage phosphor autodiogram of 8% denaturing polyacrylamide gels used to separate the fragments generated by heat induced DNA cleavage at alkylation sites. All reactions contained 10,000 cpm restriction fragment, 10 mM Tris.HCl (pH 7.0), 10 mM KCl, 10 mM MgCl2 and 5 mM CaCl2 and were performed at 37° C. Following of equilibrations of 10 minutes-24 hours, the DNA pellet was resuspended in sodium citrate buffer (pH=7.2) and heated to 90° C. for 15 min to thermally cleave at sites of adenine- or guanine-N3 lesions. Lane 1, intact DNA; lane 2, A-specific reaction; lane 3, G-specific reaction; lanes 4-11, 500 pM ImPy-β-ImPy-(R)^CHLγ-ImPy-β-ImPy-β-Dp (2), equilibrations for 10 min, 20 min, 30 min, 1 h, 2 h, 4 h, 12 h, 24 h, respectively. Right. models bound to match sites on the DNA fragment (SEQ ID NO:15). The polyamide is colored as in FIG. 7. The solid arrows indicate cleavage bands from cleavage sites of adenine- or guanine-N3 lesions on the restriction fragment.
All reactions were executed in a total volume of 40 μl. A polyamide stock solution or H2O was added to an assay buffer containing radiolabeled restriction fragment (10,000 cpm), affording final solution conditions of 10 mM Tris.HCl, 10 mM KCl, 10 mM MgCl2, 5 mM CaCl2, pH 7.0, and either 1 pM-10 nM nitrogen mustard-polyamide conjugate or no conjugate (for reference lanes). The solutions were equilibrated at 37° C. for the desired time period. The reactions were stopped by the addition of 60 μl of a solution containing 0.6 M NaOAc, 12.5 mM EDTA, 0.15 mM (bp) calf thymus DNA, 2.0 M NaCl, 0.8 mg/ml glycogen, and ethanol precipitated. Reactions were resuspended in 40 μl […] sodium citrate buffer, pH 7.2, and heated for […] The reactions were ethanol precipitated and resuspended in 1×TBE/80% formamide loading buffer, denatured by heating at 85° C. for 10 minutes, and placed on ice. The reaction products were separated by electrophoresis on an 8% polyacrylamide gel (5% cross-link, 7 M urea) in 1×TBE at 2000 V. Gels were dried and exposed to a storage phosphor screen (Molecular Dynamics) [Johnston, R. F., Pickett, S. C. & Barker, D. L. (1990). Autoradiography using storage phosphor technology. Electrophoresis 11, 355-360].

[2] = test system: 5′-end labeled and 3′-end labeled 277 base pair restriction fragment; assay: Thermally induced strand cleavage by seco-CBI conjugates; type: biochemical; details: for concentration range of alkylation by CBI control compounds: FIG. 17, 1 μM and 10 μM, 12 H, 37° C.
Method: Storage phosphor autoradiograms of 8% denaturing polyacrylamide gels used to separate the fragments generated by heat induced DNA cleavage at alkylation sites. All lanes contain 10 kcpm of either 5′ or 3′ radiolabeled DNA. Each reaction was equilibrated in TE, pH 7.5 at 37° C. for 12 H. The unbound polyamide was removed by precipitation, and then strand cleavage was induced by heating at 95° C. for 30 min. (a) 5′-^32P-end labeled restriction fragment (SEQ ID NO:18). (b) 3′-^32P-end labeled restriction fragment. (a-b) lanes 1 and 14, intact DNA; lanes 2-11, 15-24, 1 pM, 2 pM, 5 pM, 10 pM, 20 pM, 50 pM, 100 pM, 200 pM, 500 pM, 1 nM respectively of the corresponding polyamide; lanes 12 and 25, A-specific reaction; lanes 13 and 26, G-specific reaction. (a-b) Ball-and-stick models of polyamides bound to match and mismatch sites on the DNA fragment. Match sites 5′-TGGTCA-3′ and 5′-AGGACT-3′ and single base pair mismatch site 5′-AGGAGT-3′ are indicated in bold on the sequence, with arrows indicating cleavage bands. The polyamide is colored as in FIG. 10, with the bold triangle representing (R)-CBI.
Storage phosphor autoradiograms of 8% denaturing polyacrylamide gels used to separate the fragments generated by heat induced DNA cleavage at alkylation sites. All lanes contain 10 kcpm of either 5′ or 3′ radiolabeled DNA. Each reaction was equilibrated in TE, pH 7.5 at 37° C. from 0 to 10 hours. The unbound polyamide was removed by precipitation, and then strand cleavage was induced by heating at 95° C. for 30 min. (a) 5′-^32P-end labeled restriction fragment (SEQ ID NO: 18). (b) 3′-^32P-end labeled restriction fragment. (a-b) lanes 1 and 11, intact DNA; lanes 2-8, 1 nM of corresponding polyamide, equilibrations for 0, 15 minutes, 30 minutes, 1 hour, 2 hours, 5 hours, and 10 hours, respectively; lanes 9 and 19, A-specific reaction; lanes 10 and 20, G-specific reaction. (a-b) Ball-and-stick models of polyamides bound to match and mismatch sites on the DNA fragment. Match sites 5′-TGGTCA-3′ and 5′-AGGACT-3′ and single base pair mismatch site 5′-AGGAGT-3′ are indicated in bold on the sequence, with arrows indicating cleavage bands. The polyamide is colored as in FIG. 10, with the bold triangle representing (R)-CBI.
Storage phosphor autoradiograms of 8% denaturing polyacrylamide gels used to separate the fragments generated by heat induced DNA cleavage at alkylation sites. All lanes contain 10 kcpm of either 5′ or 3′ radiolabeled DNA. Each reaction was equilibrated in TE, pH 7.5 at 37° C. for 12 H. The unbound polyamide or agent was removed by precipitation, and then strand cleavage was induced by heating at 95° C. for 30 min. (a) 5′-^32P-end labeled restriction fragment. (b) 3′-^32P-end labeled restriction fragment. (a-b) Lane 1, intact DNA; lane 2, 1R, 1 nM; lane 3 1S, 1 nM; lanes 4-5, 2R, 1 μM and 10 μM, respectively; lanes 6-7, 2S, 1 μM and 10 μM, respectively; lane 8, A-specific reaction; lane 9, G-specific reaction.
All reactions were carried out in a volume of 50 μl. A polyamide or seco-CBI-dimethyl gaba stock solution or water (for reference lane) was added to an assay buffer of TE (pH7.5) and […] of 3′- or 5′-radiolabeled DNA. The solutions were allowed to equilibrate for 12 hours or the appropriate time (for time course reactions) at 37° C. The reactions were stopped with 60 μl of a solution containing NaOAc (600 mM), EDTA pH 8.0 (12.5 mM), calf thymus DNA (150 μM base pair), glycogen (0.8 mg mL^−1), and NaCl (2 M). Ethanol was added to remove unbound polyamide and precipitate the products. The reactions were resuspended in 20 μl of TE (pH 7.5) and cleavage was initiated by heating at 95° C. for 30 minutes. The cleavage products were precipitated with 150 μl ethanol and then resuspended in 100 mM trisborate-EDTA/80% formamide loading buffer, and denatured and loaded onto polyacrylamide gels as previously reported. The gels were quantitated by the use of storage phosphor technology. […]

Compound: CN(C)CCCNC(=O)CCCc1ccc(N(CCCl)CCCl)cc1 [compound 4, 4-{4-[bis (2-chloroethyl)amino]phenyl}-N-[3-(dimethylamino)propyl]butanamide]
- cleavage by freely diffusing alkylator ([1]; 10 μM concentration): no cleavage

Compound: (R)-Seco-CBI-β-alanine-(dimethyl)-β-aminobutyric acid [2R]
- concentration range of alkylation by CBI control compounds [2]: alkylate only at micromolar concentrations

Compound: (S)-Seco-CBI-β-alanine-(dimethyl)-γ-aminobutyric acid [2S]
- concentration range of alkylation by CBI control compounds [2]: alkylate only at micromolar concentrations

Compound: ImImPyPy-(R)^(R)-CBIγ-ImPyPyPy-β-Dp [conjugate 1R]
- alkylation efficiency and rate compared with the other enantiomer conjugate [2]: higher alkylation efficiency and faster rates of alkylation than 1S
- alkylation on the 5′-labeled strand [2]: no alkylation
- site of alkylation [2]: alkylation at the site which includes a match site for the polyamide

Compound: ImImPyPy-(R)^(S)-CBIγ-ImPyPyPy-β-Dp [conjugate 1S]
- site of alkylation [2]: alkylates adjacent to a match site

Compound: ImPy-β-ImPy-(R)^CHLγ-ImPy-β-ImPy-β-Dp [conjugate 2]
- concentration at which minor cleavage was observed proximal to double base pair mismatch sites [1]: greater than 1 nM
- specificity for reaction at match sites over mismatch sites [1]: approximately 20 fold
- earliest time at which cleavage was detectable ([1]; 0.5 nM, pH 7.0, 37° C.): 10 min
- final cleavage yield on the bottom strand ([1]; 0.5 nM, pH 7.0, 37° C., 24 hours): 45%
- time at which alkylation was half completed at match sites ([1]; 0.5 nM, pH 7.0, 37° C., monitored for 24 hours): 2.2 h
- cleavage on one strand (bottom strand) ([1]; 10 nM concentration, 37° C.): quantitative cleavage
- alkylation at subnanomolar concentrations ([1]; subnanomolar concentrations): high yield
